Where “and” joins values, the source holds several entries; their conditions need not be identical. Identical values can stand only once. Like-named read-outs stand apart in the source and are kept apart here.
Experiments:
[1] = tested on: pERK in MiaPaCa2 tumors; assay: Tumor pERK inhibition and PK-PD in MiaPaCa2 xenograft; set-up: species or system mice; conditions: Mus musculus, MIA PaCa-2, 24 h, 25 mg/kg oral, read-out: Ex vivo % pERK inhibition at 24 h
[2] = tested on: MiaPaCa-2 pancreatic xenograft; assay: Antitumor activity in MiaPaCa-2 tumor model; type: in vivo, mice; conditions: oral 25 mg/kg once a day for 14 days
[3] = tested on: BxPc-3 pancreatic xenograft; assay: Antitumor activity in BxPc-3 tumor model; type: in vivo, mice; conditions: oral 25 mg/kg once a day for 14 days
[4] = tested on: H23 NSCL xenograft; assay: Antitumor activity in H23 tumor model; type: in vivo, mice; conditions: oral 25 mg/kg once a day for 14 days
[5] = tested on: ZR-75-1 (human tumor of unknown phenotype); assay: Antitumor activity in ZR-75-1 tumor model; type: in vivo, mice; conditions: ZR-75-1 (unknown phenotype), oral 25 mg/kg once a day for 14 days
[6] = Metabolites of [14C] Compound 1 in cryopreserved hepatocytes; type: in vitro ADME, human; conditions: [C-14] Compound 1 10 μM, 180 mins
Experimental: (§1) Incubations were performed in hepatocytes for 3 hours and liver microsomes for 1.5 hours and were stopped with the addition of methanol. HPLC, in conjuction with ionspray 3D iontrap mass spectrometry, and simultaneous radioactive monitoring were used to detect and identify the resulting metabolites.
Metabolite identification of radiolabeled Compound 1 was performed after incubation with rat, dog, monkey and human cryopreserved hepatocytes and liver microsomes. […] Besides glucuronidation, metabolites derived from other clearance pathways are also observed. For instance, M 15 (acid cleavage product) accounts for 11% of the total radioactivity in the human chromatogram.

[7] = Metabolites of [14C] Compound 1 in liver microsomes; type: in vitro ADME, rat; conditions: [C-14] Compound 1 10 μM, 90 mins
Experimental: as §1
This acid cleavage product is further metabolized to form hydroxylated (M 11, 16% in rat) and hydroxylated, defluorinated products (M 17, 19% in rat).

[8] = tested on: Ki67 in tumor biopsies; assay: Immunohistochemical analysis of Ki67 in paired tumor biopsies; type: in vivo, human
Experimental: The same biopsy specimens, as analyzed for pERK. staining described in Example 10, were also assessed for the amount of Ki67 detectable by immunohistochemistry. The Ki67 marker is considered an indicator of cell proliferation and thus reduction in Ki67 staining levels may be correlated with anti-tumor activity of therapeutic agents. Tissue sections from the paraffin-embedded biopsy tissues were pretreated with Heat-induced Epitope Retrieval (in this case, microwaving for 3 minutes) prior to the Ki67 detection procedure. The antibody used was the mouse monoclonal Ki67/MM1 manufactured by Novocastra Laboratories, Ltd. (catalog number: NCL-Ki67-MM1). […] Scoring of staining intensity was performed in same manner as for pERK assay, with H-scores generated for each section. For Ki67, only 1 section was assayed for each biopsy specimen.

[9] = tested on: ERK phosphorylation in colon 26 cells; assay: cells; conditions: Mus musculus
[10] = tested on: ERK phosphorylation in HCT-116 colon cells; assay: cells; conditions: Homo sapiens, HCT-116, 1 h, read-out: Cellular IC50
[11] = clinical; conditions: human, plasma, oral
Experimental: (§2) Pharmacokinetic data are presented for the first 38 subjects.
(§3) Blood samples were collected from patients into a purple-top potassium EDTA Vacutainer tube. Following mixing with gentle inversion (8-10 times), tubes were centrifuged within 20 minutes at 1000×g for 15 minutes, to harvest plasma. Plasma samples were stored at −20° C. until analysis.
(§4) The following results are based on preliminary pharmacokinetic parameters from the 38 subjects, estimated using nominal collection times and quality-controlled, non quality-assured bioanalytical data. Pharmacokinetic parameters were determined by the non-compartmental method using WINNONLIN Professional Edition (Version 4.1). […] The maximum observed concentration (Cmax) was obtained by inspection of the concentration data. The time to reach the Cmax was the first time at which Cmax is observed and obtained by inspection of the data. The pre-dose concentration (Ctrough) was obtained by inspection of the concentration data.

[12] = Plasma pharmacokinetics after multiple oral doses in advanced cancer patients
Experimental: as §2, §3, §4

[13] = 1 mg BID, melanoma, individual patient
[14] = 1 mg QD, breast, individual patient
[15] = 1 mg QD, melanoma, individual patients
[16] = 2 mg BID, colon, individual patient
[17] = 2 mg BID, lung, individual patient
[18] = 2 mg BID, melanoma, individual patients
[19] = 4 mg BID, melanoma, individual patient
[20] = 15 mg BID, breast, individual patient
[21] = 15 mg BID, melanoma, individual patient
[22] = 20 mg BID continuous, melanoma, individual patients
[23] = 30 mg BID, melanoma, individual patient
[24] = patients, 1 mg BID, C1D21, fasting, mean
[25] = patients, 1 mg QD, C1D21, fasting, mean
[26] = patients, 2 mg BID, C1D21, fasting, mean
[27] = patients, 15 mg BID, C1D21, fasting, mean
[28] = patients, 20 mg BID continuous, C1D21, fasting, mean

## O=C(NOC[C@H](O)CO)c1ccc(F)c(F)c1Nc1ccc(I)cc1F [Compound 1, N-[(R)-2,3-dihydroxy-propoxy]-3,4-difluoro-2-(2-fluoro-4-iodo-phenylamino)-benzamide]
[1]
  inhibition at 25 mg/kg: 93%
[2]
  CR (complete responder): 1/9
  PR (partial responder): 0/9
  T − C: 16.8 days
  Tumor Free: 0/9
[3]
  CR (complete responder): 2/10
  PR (partial responder): 8/10
  T − C: 20.6 days
  Tumor Free: 0/10
[4]
  CR (complete responder): 0/8
  PR (partial responder): 1/8
  T − C: 13.9 days
  Tumor Free: 0/8
[5]
  CR (complete responder): 7/8
  PR (partial responder): 1/8
  T − C: 24.2 days
  Tumor Free: 0/8
[6]
  % ROI Human: 15.68%
[7]
  % ROI Rat: 52.30%
[8]; baseline Ki67 scores above 20, 2 mg BID to 30 mg BID (N=13)
  average Ki67 decline: 49%
[8]; baseline Ki67 scores above 20, all dose groups (N=18)
  average Ki67 decline: 39%
[8]; tumor biopsies Day 15, 1 mg QD to 30 mg BID (N=22)
  average Ki67 decline: 31%
[8]; tumor biopsies Day 15, 2 mg BID to 30 mg BID (N=19)
  average Ki67 decline: 46%
human, in vivo
  doses at which Grade 3 rashes were seen: above 15 mg BID
  effect on serum (C×P) product: no notable effect
patients, dosing 21 days of a 28-day cycle
  MTD: 20 mg BID
[9]; Colon 26, 1 h, read-out: Cellular IC50
  IC50: 0.34 nM
[9]; Colon 26, read-out: IC50, phosphorylation of MAP kinase
  IC50: 0.33 nM
[10]
  IC50: 0.28 nM
[11]
  half-life: 5 to 14 h
[11]; 1 mg
  Cmax: 0.0411 µg/mL
  Tmax: 1 h
  half-life: 13.9 h
[11]; 2 mg
  Cmax: 0.152 µg/mL
  Tmax: 1 h
[11]; 4 mg
  AUC(0-t): 1.58 µg·h/mL
  Cmax: 0.208 µg/mL
  Tmax: 1 h
  concentration at 21 day: 0.082 µg/mL
  half-life: 7.6 h
[11]; 15 mg
  Cmax: 0.706 µg/mL
  Tmax: 1 h
  half-life: 12.6 h
[11]; 20 mg
  AUC(0-t): 6.99 µg·h/mL
  Cmax: 0.766 µg/mL
  Tmax: 2 h
  concentration at 21 day: 0.44 µg/mL
  half-life: 8.3 h
[11]; 30 mg
  AUC(0-t): 12.5 µg·h/mL
  Cmax: 1.64 µg/mL
  Tmax: 2 h
  concentration at 21 day: 0.5 µg/mL
  half-life: 4.8 h
[12]; [13]
  Compound 1 AUC(0-24), Day 21: 0.275 µg·h/mL
  Compound 1 Css, avg: 0.011 µg/mL
[12]; [14]
  Compound 1 AUC(0-24), Day 21: 0.13 µg·h/mL
  Compound 1 Css, avg: 0.0054 µg/mL
[12]; [15]
  Compound 1 AUC(0-24), Day 21: 0.17 µg·h/mL and 0.112 µg·h/mL
  Compound 1 Css, avg: 0.0071 µg/mL and 0.0047 µg/mL
[12]; [16]
  Compound 1 AUC(0-24), Day 21: 0.898 µg·h/mL
  Compound 1 Css, avg: 0.037 µg/mL
[12]; [17]
  Compound 1 AUC(0-24), Day 21: 0.943 µg·h/mL
  Compound 1 Css, avg: 0.039 µg/mL
[12]; [18]
  Compound 1 AUC(0-24), Day 21: 0.785 µg·h/mL and 2.02 µg·h/mL
  Compound 1 Css, avg: 0.033 µg/mL and 0.084 µg/mL
[12]; 4 mg BID, lung, individual patient
  Compound 1 AUC(0-24), Day 21: 1.974 µg·h/mL
[12]; [19]
  Compound 1 AUC(0-24), Day 21: 1.426 µg·h/mL
  Compound 1 Css, avg: 0.059 µg/mL
[12]; [20]
  Compound 1 AUC(0-24), Day 21: 7.68 µg·h/mL
  Compound 1 Css, avg: 0.32 µg/mL
[12]; [21]
  Compound 1 AUC(0-24), Day 21: 2.48 µg·h/mL
  Compound 1 Css, avg: 0.1033 µg/mL
[12]; [22]
  Compound 1 AUC(0-24), Day 21: 5.48 µg·h/mL and 5.8 µg·h/mL
  Compound 1 Css, avg: 0.2283 µg/mL and 0.2417 µg/mL
[12]; 20 mg BID, melanoma, individual patient
  Compound 1 AUC(0-24), Day 21: 10.56 µg·h/mL
[12]; 30 mg BID, colon, individual patient
  Compound 1 AUC(0-24), Day 21: 12 µg·h/mL
[12]; [23]
  Compound 1 AUC(0-24), Day 21: 12.92 µg·h/mL
  Compound 1 Css, avg: 0.5383 µg/mL
[12]; fasted state, inter-subject variability
  overall coefficient of variation (CV) for AUC(0-24): 39%
[12]; patients
  elimination plasma half-life: 5 to 16 h
[12]; [24]
  AUC(0-24): 0.338 µg·h/mL
  Ctrough: 0.00917 µg/mL
[12]; [25]
  AUC(0-24): 0.143 µg·h/mL
  Cmax: 0.0223 µg/mL
  Ctrough: 0.003 µg/mL
  Tmax: 2 h
[12]; [26]
  AUC(0-24): 1.161 µg·h/mL
  Ctrough: 0.0274 µg/mL
[12]; patients, 4 mg BID, C1D21, fasting, mean
  Ctrough: 0.028 µg/mL
[12]; [27]
  AUC(0-24): 5.687 µg·h/mL
  Ctrough: 0.142 µg/mL
[12]; [28]
  AUC(0-24): 6.572 µg·h/mL
  Cmax: 0.989 µg/mL
  Ctrough: 0.0837 µg/mL
  T1/2: 5.1 h
  Tmax: 2 h
[12]; patients, 20 mg BID, C1D21, fasting, mean
  Ctrough: 0.112 µg/mL
[12]; patients, 30 mg BID, C1D21, fasting, mean
  Ctrough: 0.157 µg/mL

— patent publication US20060154990A1, “Use of MEK inhibitors in treating abnormal cell growth” (AGOURON PHARMACEUTICALS, INC., priority 2004, published 2006)
